{"source": "patent US7816352B2", "about": "“Apoptosis inhibitors” (The Regents of The University of California, priority 2005, dated 2010)", "key": {"thymocytes": {"test_system": "thymocytes", "experiment": "Cytoprotection of mouse thymocytes from dexamethasone-induced apoptosis (PI/DiOC6 flow cytometry)", "assay_type": "cell-based, C57Bl/6 mice", "details": "Thymocyte", "procedure": "Thymocytes were harvested from young C57Bl/6 mice and cultured at 37° C. in 5% CO2 in RPMI 1640 containing 10% FBS, 1% Penicillin/Streptomycin (Gibco BRL, Rockville, Md.). Thymocytes were plated at a density of 10^7 cells/mL and pre-incubated with 5-10 μM of test compounds, 1, 2, 4, and 11 (from 10 mM\n[drawing 8] stock in DMSO) for 30 minutes before induction of apoptosis. Apoptosis was induced with 5 μM dexamethasone or by exposure to 6 Gy gamma radiation. After 6 hours, cell apoptosis was assayed by propidium iodide (PI) and 3,3′ dihexyloxacarbocyanine iodide (DiOC6) staining. The cells were removed from the plate and incubated for 30 minutes in medium with 40 nM DiOC6 and 5 μg/mL PI and then analyzed by flow cytometry in a FACS caliber (Beckton-Dickinson, San Jose, Calif.). Viable cells had high DiOC6 (FL-1) and low PI (FL-3), whereas apoptotic cells had low DiOC6 (FL-1) and […]. To evaluate the IC50s the thymocytes were pre-exposed to graded concentrations of selected compounds for 30 min and then apoptosis was induced with 5 μM dexamethasone. After 6 hours the cells were harvested and stained as above. The results are illustrated in FIGS. 1 and 2 IC50 Determination\nThe concentration (IC50) of each compound that inhibited dexamethasone-induced cell death by 50% was determined by nonlinear regression fitting of the data to a one-site model. Pseudo Hill slopes were determined by nonlinear regression fit of the data to a sigmoidal dose-response equation (variable slope): % viability=minimum %/viability+(maximum−minimum % viability)/[1+10(log IC50−X)^n], where X is the logarithm of inhibitor concentration, and n is the pseudo Hill slope and the maximum and minimum % viability were experimentally determined after dexamethasone exposure and drug treatment. IC50 values and 95% confidence intervals (CI) were derived from the sigmoid fits to the percent control transformed data shown using GraphPad Prism version 4.0b for Macintosh (GraphPad Software, San Diego, Calif.)."}, "[1]": {"details": "mice; cited from earlier work"}, "cells": {"test_system": "cells", "details": "cells pre-incubated with compound, then exposed to γ-radiation; cited from earlier work"}, "[2]": {"details": "read-out: EC50, cytoprotective activity following in vitro dexamethasone treatment of mouse thymocytes"}, "[3]": {"details": "5 μM dexamethasone, 30 min pre-incubation, 6 hours, 95% CI in parentheses, read-out: EC50, in vitro cytoprotection activity"}}, "note": "Read-outs that look alike come from different tables or passages of the source.", "data": [{"smiles": "Br.Cc1ccc(C(=O)Cn2c3c(sc2=N)CCCC3)cc1", "note": "[Compound 1, 2-(2-imino-4,5,6,7-tetrahydro-benzothiazol-3-yl)-1-p-tolyl-ethanone hydrobromide]", "values": [{"measurement": "EC50", "setting": "thymocytes; [2]", "value": 4.4, "unit": "µM"}, {"measurement": "mortality after γ-radiation", "setting": "[1]", "value": "reduced mortality"}, {"measurement": "apoptosis after γ-radiation", "setting": "cells", "value": "decreased in apoptosis"}]}, {"smiles": "CON=C(C[n+]1cccc2ccccc21)c1ccc(C)cc1", "note": "[Compound 4, 1-(2-Methoxyimino-2-p-tolyl-ethyl)-quinolinium bromide]", "values": [{"measurement": "EC50", "setting": "thymocytes; [3]", "value": 0.35, "unit": "µM"}, {"measurement": "EC50", "setting": "thymocytes; [2]", "value": 0.35, "unit": "µM"}]}, {"smiles": "Cc1ccc(C(=O)C[n+]2cccc3ccccc32)cc1", "note": "[Compound 5, 1-(2-Oxo-2-p-tolyl-ethyl)-quinolinium bromide]", "values": [{"measurement": "EC50", "setting": "thymocytes; [3]", "value": "> 10", "unit": "µM"}]}, {"smiles": "CON=C(Cn1c(=O)ccc2ccccc21)c1ccc(C)cc1", "note": "[Compound 6, 1-(2-Methoxyimino-2-p-tolyl-ethyl)-1H-quinolin-2-one]", "values": [{"measurement": "EC50", "setting": "thymocytes; [3]", "value": "> 10", "unit": "µM"}]}, {"smiles": "Cc1ccc(C(=O)Cn2c(=O)ccc3ccccc32)cc1", "note": "[Compound 7, 1-(2-Oxo-2-p-tolyl-ethyl)-1H-quinolin-2-one]", "values": [{"measurement": "EC50", "setting": "thymocytes; [3]", "value": "> 10", "unit": "µM"}]}, {"smiles": "CON=C(C[n+]1ccccc1)c1ccc(C)cc1", "note": "[Compound 8, 1-(2-Methoxyimino-2-p-tolyl-ethyl)-pyridinium bromide]", "values": [{"measurement": "EC50", "setting": "thymocytes; [3]", "value": 5.1, "unit": "µM"}]}, {"smiles": "Cc1ccc(C(=O)C[n+]2ccccc2)cc1", "note": "[Compound 9, 1-(2-Oxo-2-p-tolyl-ethyl)-pyridinium bromide]", "values": [{"measurement": "EC50", "setting": "thymocytes; [3]", "value": "> 10", "unit": "µM"}]}, {"smiles": "CON=C(C[n+]1cccc2ccccc21)c1ccc(N2CCCC2)cc1", "note": "[Compound 11, 1-[2-Methoxyimino-2-(4-pyrrolidin-1-yl-phenyl)-ethyl]-quinolinium bromide]", "values": [{"measurement": "EC50", "setting": "thymocytes; [3]", "value": 0.013, "unit": "µM"}]}, {"smiles": "CON=C(Cn1c(=O)ccc2ccccc21)c1ccc(N2CCCC2)cc1", "note": "[Compound 12, 1-[2-Methoxyimino-2-(4-pyrrolidin-1-yl-phenyl)-ethyl]-1H-quinolin-2-one]", "values": [{"measurement": "EC50", "setting": "thymocytes; [3]", "value": "> 10", "unit": "µM"}]}, {"smiles": "CON=C(C[n+]1ccccc1)c1ccc(N2CCCC2)cc1", "note": "[Compound 13, 1-[2-Methoxyimino-2-(4-pyrrolidin-1-yl-phenyl)-ethyl]-pyridinium bromide]", "values": [{"measurement": "EC50", "setting": "thymocytes; [3]", "value": 0.28, "unit": "µM"}]}]}
